Columns and labels:
Type in all cases: in vitro ADME
[1] = test system: human intestinal microsomes (HIM); assay: Ticagrelor glucuronidation kinetics in pooled HIM
Experimental: (§1) Ticagrelor glucuronidation was investigated in an in vitro incubation system by using HLM, HIM, and recombinant human UGTs. The incubation system consisted of enzyme sources (HLM, HIM, or human recombinant UGTs), various concentrations of ticagrelor (dissolved in 50% methanol, 1% v/v, 1, 2, 5, 10, 20, 50, 100, 200, 500 μM of final concentration), alamethicin (50 μg/mg protein), 5 mM MgCl2, 100 mM tris-HCL buffer (pH 7.4), and 5 mM UDPGA in a total volume of 100 μl. Alamethicin is a pore-forming polypeptide used to activate UGTs in HLM and HIM ([Fisher et al., 2000]). Preliminary studies were conducted to determine the optimal protein concentrations and incubation times. Linear conditions of ticagrelor-O-Glu formation from ticagrelor, i.e., HLM, 0.2 mg of protein/ml and 60 min, HIM, 0.2 mg of protein/ml and 60 min, and recombinant human UGTs, 0.2 mg of protein/ml and 60 min were selected. The incubation mixture without UDPGA was placed on ice for 15 min to activate UGT by alamethicin. After pre-incubation for 5 min at 37°C, the reactions were started by the addition of UDPGA. After another 60 min of incubation at 37°C, the reaction was terminated by adding 100 μl of acetonitrile containing internal standard (diazepam). The mixture vortexed for 2 min and then centrifuged at 14,000 rpm for 10 min at 4°C. The resulting supernatant was injected into a liquid chromatography tandem mass spectrometry (LC-MS/MS, Applied Biosystems/MDS Sciex, Foster City, CA) system for the detection of ticagrelor-O-Glu.
Kinetic analyses were performed using the mean values of triplicate determinations with either pooled HLM, HIM, or recombinant human UGTs. All data were analyzed by nonlinear regression analysis using the GraphPad Prism 6 (GraphPad Software Inc., CA, United States). Michaelis-Menten kinetics (Eq. 1) or substrate inhibition kinetics (Eq. 2) ([Houston and Kenworthy, 2000]) were tested to determine the optimal model for describing the data. […] Intrinsic clearance (CLint) was calculated by dividing Vmax by Km.

[2] = target: T1, recombinant human UGT1A10 (Homo sapiens, UniProt Q9HAW8); assay: Ticagrelor glucuronidation screen, recombinant human UGT1A10; conditions: 10 μM ticagrelor
T1 construct: purchased BD Gentest; host or cells: baculovirus-infected insect cells
Experimental: as §1, with “The resulting supernatant was injected into a liquid chromatography tandem mass spectrometry (LC-MS/MS, Applied Biosystems/MDS Sciex, Foster City, CA) system for the detection of ticagrelor-O-Glu.” left out

UGT1A1 = target: T2, UGT1A1 (Homo sapiens, UniProt P22309); assay: Ticagrelor glucuronidation by recombinant human UGT1A1; design: purchased BD Gentest; host or cells: baculovirus-infected insect cells; conditions: recombinant human UGT1A1, pH 7.4
T2 sequence (P22309 26-533): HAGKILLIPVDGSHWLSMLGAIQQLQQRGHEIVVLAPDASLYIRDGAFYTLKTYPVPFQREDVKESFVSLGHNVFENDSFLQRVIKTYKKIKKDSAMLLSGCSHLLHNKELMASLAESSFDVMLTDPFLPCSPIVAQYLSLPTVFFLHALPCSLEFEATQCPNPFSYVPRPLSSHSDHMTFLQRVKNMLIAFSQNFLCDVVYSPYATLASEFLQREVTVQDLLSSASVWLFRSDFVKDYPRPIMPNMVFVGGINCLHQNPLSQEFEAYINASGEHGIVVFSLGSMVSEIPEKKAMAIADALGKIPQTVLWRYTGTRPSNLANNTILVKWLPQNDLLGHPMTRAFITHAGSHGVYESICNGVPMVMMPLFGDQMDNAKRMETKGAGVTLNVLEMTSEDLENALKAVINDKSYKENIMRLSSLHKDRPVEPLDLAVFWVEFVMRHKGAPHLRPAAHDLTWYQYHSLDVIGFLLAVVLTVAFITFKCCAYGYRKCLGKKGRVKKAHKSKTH
Experimental: as §1, with “After pre-incubation for 5 min at 37°C, the reactions were started by the addition of UDPGA. After another 60 min of incubation at 37°C, the reaction was terminated by adding 100 μl of acetonitrile containing internal standard (diazepam). The mixture vortexed for 2 min and then centrifuged at 14,000 rpm for 10 min at 4°C. The resulting supernatant was injected into a liquid chromatography tandem mass spectrometry (LC-MS/MS, Applied Biosystems/MDS Sciex, Foster City, CA) system for the detection of ticagrelor-O-Glu.” left out
Kinetic analyses were performed using the mean values of triplicate determinations with either pooled HLM, HIM, or recombinant human UGTs. All data were analyzed by nonlinear regression analysis using the GraphPad Prism 6 (GraphPad Software Inc., CA, United States). […] Intrinsic clearance (CLint) was calculated by dividing Vmax by Km.

CYP2C9 = target: T3, CYP2C9 (Homo sapiens, UniProt P11712); assay: CYP2C9 inhibition in HLM (diclofenac 4′-hydroxylase)
T3 construct: co-incubation ticagrelor-O-Glu with selective P450 probe substrates in HLM; tissue XenoTech LLC; host or cells: pooled human liver microsomes
Experimental: The potential inhibitory effects of ticagrelor-O-Glu on the activities of major CYPs, i.e., CYP2B6, CYP2C8, CYP2C9, CYP2C19, CYP2D6, and CYP3A4, were evaluated by co-incubation ticagrelor-O-Glu with selective P450 probe substrates in HLM. Each incubation mixture containing 0.2 mg/ml HLM, ticagrelor-O-Glu and respective substrate (the final substrate concentrations are close to or less than the Km values: 150 μM bupropion, 1.26 μM amodiaquine, 10 μM diclofenac, 20 μM mephenytoin, 20 μM dextromethorphan and 80 μM testosterone (in house data)) in potassium phosphate buffer (100 mM, pH 7.4) was pre-incubated at 37°C for 5 min. Then, NADPH (10 mM) was added to initiate the reaction. The final volume of the incubation mixture was 100 μl. After incubation at 37°C for specific time points, the reaction was terminated by the addition of 200 μl of ice-cold methanol solution with internal standards (diazepam and furafylline). Preliminary screening experiments with selected concentrations of ticagrelor-O-Glu (0, 1, 10, or 100 μM of the final concentration) were carried out to determine the inhibition potency. For those that produced approximately 50% inhibition of CYPs enzyme activities at a ticagrelor-O-Glu concentration between 1 and 100 μM, IC50 was further determined with various concentrations of ticagrelor-O-Glu (0, 1, 5, 10, 20, 50, and 100 μM). All the experiments were performed in triplicates. The supernatant was obtained after centrifugation at 14,000 rpm for 10 min and injected into LC-MS/MS for the analysis of the respective metabolites. The formation of respective metabolites was determined to reflect P450 isoform activities. The metabolites quantified for CYP2B6, CYP2C8, CYP2C9, CYP2C19, CYP2D6, and CYP3A4 were hydroxy bupropion, N-Desethyl amodiaquine, 4′-hydroxylation diclofenac, S-4-hydroxy mephenytoin, dextrorphan and 6β-hydroxy testosterone, respectively.
The percent inhibition relative to the control was calculated to indicate the UGTs or CYPs inhibition. […]

T3 sequence (P11712 whole entry): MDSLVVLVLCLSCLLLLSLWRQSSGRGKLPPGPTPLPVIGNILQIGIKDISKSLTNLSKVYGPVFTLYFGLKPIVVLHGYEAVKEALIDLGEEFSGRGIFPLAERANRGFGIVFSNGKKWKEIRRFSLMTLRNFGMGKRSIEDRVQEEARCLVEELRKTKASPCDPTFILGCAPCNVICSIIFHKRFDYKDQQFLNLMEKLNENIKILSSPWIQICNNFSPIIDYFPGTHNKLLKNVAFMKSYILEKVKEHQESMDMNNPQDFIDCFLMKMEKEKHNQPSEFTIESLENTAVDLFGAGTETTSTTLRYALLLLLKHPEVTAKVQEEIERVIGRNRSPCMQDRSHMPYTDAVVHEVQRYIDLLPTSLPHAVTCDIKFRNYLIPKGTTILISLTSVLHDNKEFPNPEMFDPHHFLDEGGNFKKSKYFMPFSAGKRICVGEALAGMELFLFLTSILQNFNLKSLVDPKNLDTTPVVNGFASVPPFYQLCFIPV
T1 sequence (Q9HAW8 26-530): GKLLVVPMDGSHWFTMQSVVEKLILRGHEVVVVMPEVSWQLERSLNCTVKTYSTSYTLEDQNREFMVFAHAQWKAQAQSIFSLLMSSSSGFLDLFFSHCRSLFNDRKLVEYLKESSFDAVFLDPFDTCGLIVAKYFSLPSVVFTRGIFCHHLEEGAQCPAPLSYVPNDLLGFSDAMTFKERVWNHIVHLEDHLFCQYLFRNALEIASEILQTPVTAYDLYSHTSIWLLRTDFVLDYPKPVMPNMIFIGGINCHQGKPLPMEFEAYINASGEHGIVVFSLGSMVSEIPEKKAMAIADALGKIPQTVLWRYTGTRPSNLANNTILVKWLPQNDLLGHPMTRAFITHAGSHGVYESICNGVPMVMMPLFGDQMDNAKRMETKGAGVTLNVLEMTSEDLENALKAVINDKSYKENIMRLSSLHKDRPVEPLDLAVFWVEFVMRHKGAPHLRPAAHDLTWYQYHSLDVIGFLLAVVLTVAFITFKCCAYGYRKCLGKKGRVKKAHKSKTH

Km ([1]; pooled HIM 0.2 mg protein/ml, 60 min, substrate inhibition kinetics) [µM]	glucuronidation activity for ticagrelor [2]	microsomal CLint (UGT1A1) [µL/min/mg]	IC50 (CYP2C9; CYP2C9, diclofenac 4′-hydroxylase, HLM 0.2 mg/ml) [µM]	inhibition at 10 μM (CYP2C9; human, human liver microsomes, pH 7.4, probe diclofenac (10 μM), 4′-hydroxylation diclofenac formation, HLM, 10 μM ticagrelor-O-Glu, read-out: inhibition of CYP2C9 enzyme activity) [%]	inhibition at 100 µM (CYP2C9; human, human liver microsomes, pH 7.4, probe diclofenac (10 μM), 4′-hydroxylation diclofenac formation, HLM, 100 μM ticagrelor-O-Glu, read-out: inhibition of CYP2C9 enzyme activity) [%]	SMILES	Ksi ([1]; pooled HIM) [µM]	Vmax ([1]; pooled HIM) [pmol·min^−1·mg protein^−1]
2.52	no glucuronidation activities	0.03				CCCSc1nc(N[C@@H]2C[C@H]2c2ccc(F)c(F)c2)c2nnn([C@@H]3C[C@H](OCCO)[C@@H](O)[C@H]3O)c2n1 [Ticagrelor]	292.9	0.90
			20	44	73.5	CCCSc1nc(N[C@@H]2C[C@H]2c2ccc(F)c(F)c2)c2nnn([C@@H]3C[C@H](OCCO[C@@H]4O[C@H](C(=O)O)[C@@H](O)[C@H](O)[C@H]4O)[C@@H](O)[C@H]3O)c2n1 [Ticagrelor-O-Glu, ticagrelor-O-glucuronide]		

From publication PMC8552062, “Contributions of UDP-Glucuronosyltransferases to Human Hepatic and Intestinal Metabolism of Ticagrelor and Inhibition of UGTs and Cytochrome P450 Enzymes by Ticagrelor and its Glucuronidated Metabolite” (Frontiers in Pharmacology, 2021)
